Experimental findings from patent US12692264B2, “Pyrimidine or pyridine derivative, preparation method therefor, and application thereof in pharmacy” (ABBISKO THERAPEUTICS CO., LTD., priority 2021, dated 2026) are described below.

Assay type in all cases: cell-based
The target of test [1] is Ba/F3 EGFR-D770-N771ins_SVD (Homo sapiens, UniProt P00533, DUP768-770, cells depend on it). As to the kind of experiment: Cell proliferation study (CellTiter-Glo, 72 hrs), Ba/F3 EGFR-D770-N771ins_SVD. Conditions: CTG, * = average of multiple measurements, read-out: Ba/F3 EGFR-D770-N771ins_SVD IC50. The procedure: (§1) (I) Reagents and Materials
(§2) • Fetal bovine serum FBS (GBICO, Cat #10099-141); • CellTiter-Glo® luminescent cell viability assay kit (Promega, Cat #G7572); • Black transparent flat-bottom 96-well plate (Corning®, Cat #3603). (II) Instruments • SpectraMax multi-label microplate reader MD, 2104-0010A; • Carbon dioxide incubator, Thermo Scientific 3100 series; • Biological safety cabinet, Thermo Scientific, 1300 series model A2; • Inverted microscope, Olympus, CKX41SF; • Siemens refrigerator KK25E76T1. (III) Cell Lines and Culture Conditions
(§3) (IV) Experimental Procedures 1. Cell Culture and Inoculation: • (1) Cells in the logarithmic growth phase were harvested and counted using a […]. The cell viability was determined by the trypan blue dye exclusion method to ensure cell viability above 90%. • (2) The cell concentration was adjusted to reach a desired final density; 90 μL of cell suspension was added to a 96-well plate. • (3) The cells were incubated overnight in the 96-well plate at 37° C., 5% CO2 and with 95% humidity. 2. T0 Benchmark Data: • (1) 10 μL of PBS was added to each well of the TO plate containing the cells. • (2) The CTG reagent was thawed and the cell plate was equilibrated to room temperature for 30 min. • (3) An equal volume of CTG solution was added to each well. • (4) The cells were lysed by shaking on an orbital shaker for 5 min. • (5) The cell plate was left to stand at room temperature for 20 min to stabilize the fluorescence signal. • (6) The fluorescence signal values of TO were read. 3. Dilution and Addition of Compounds • (1) According to the compound information table, a corresponding volume of DMSO was added to the corresponding compound powder to prepare a 10 mM stock solution. • (2) A 1000-fold, 3.16-fold-diluted compound solution was prepared. • (3) The 1000× diluted compound solution was diluted 100-fold with PBS to prepare a 10-fold compound solution with a maximum concentration of 10 μM, including 9 concentrations, with 3.16-fold dilution, and 10 μL of the medicament solution was added to each well of the 96-well plate to seed the cells. Triplicate wells were set for each compound concentration, with a final concentration of DMSO being 0.1%. • (4) The cells were placed in the 96-well plate containing the medicament at 37° C., 5% CO2 and with 95% humidity, and cultured for 72 hrs before CTG analysis. 4. Fluorescence Signal Reading • (1) The CTG reagent was thawed and the cell plate was equilibrated to room temperature for 30 min. • (2) An equal volume of CTG solution was added to each well. • (3) The cells were lysed by shaking on an orbital shaker for 5 min. • (4) The cell plate was left to stand at room temperature for 20 min to stabilize the fluorescence signal. • (5) The fluorescence values were read. 5. Data Processing
(§4) Data were analyzed using GraphPad Prism 7.0 software and fitted data were regressed using non-linear S-curves to obtain dose-response curves from which IC50 values (in nM) were calculated.

Test [2] addresses Ba/F3 EGFR-V769_D770insASV (Homo sapiens, UniProt P00533, DUP767-769, cells depend on it). The test is described as follows: Cell proliferation study (CellTiter-Glo, 72 hrs), Ba/F3 EGFR-V769_D770insASV. The conditions noted are these: CTG, * = average of multiple measurements, read-out: Ba/F3 EGFR-V769_D770insASV IC50. The procedure:
as §1, §2, §3, §4

In test [3] the test system is A431 (EGFR-WT). As to the kind of experiment: Cell proliferation study (CellTiter-Glo, 72 hrs), A431. Conditions: Homo sapiens, A-431, A431 cells, CTG, * = average of multiple measurements. The procedure: as §1, §2, §3, §4

Sequence of Ba/F3 EGFR-D770-N771ins_SVD (P00533 with tags, fused parts or gaps DUP768-770): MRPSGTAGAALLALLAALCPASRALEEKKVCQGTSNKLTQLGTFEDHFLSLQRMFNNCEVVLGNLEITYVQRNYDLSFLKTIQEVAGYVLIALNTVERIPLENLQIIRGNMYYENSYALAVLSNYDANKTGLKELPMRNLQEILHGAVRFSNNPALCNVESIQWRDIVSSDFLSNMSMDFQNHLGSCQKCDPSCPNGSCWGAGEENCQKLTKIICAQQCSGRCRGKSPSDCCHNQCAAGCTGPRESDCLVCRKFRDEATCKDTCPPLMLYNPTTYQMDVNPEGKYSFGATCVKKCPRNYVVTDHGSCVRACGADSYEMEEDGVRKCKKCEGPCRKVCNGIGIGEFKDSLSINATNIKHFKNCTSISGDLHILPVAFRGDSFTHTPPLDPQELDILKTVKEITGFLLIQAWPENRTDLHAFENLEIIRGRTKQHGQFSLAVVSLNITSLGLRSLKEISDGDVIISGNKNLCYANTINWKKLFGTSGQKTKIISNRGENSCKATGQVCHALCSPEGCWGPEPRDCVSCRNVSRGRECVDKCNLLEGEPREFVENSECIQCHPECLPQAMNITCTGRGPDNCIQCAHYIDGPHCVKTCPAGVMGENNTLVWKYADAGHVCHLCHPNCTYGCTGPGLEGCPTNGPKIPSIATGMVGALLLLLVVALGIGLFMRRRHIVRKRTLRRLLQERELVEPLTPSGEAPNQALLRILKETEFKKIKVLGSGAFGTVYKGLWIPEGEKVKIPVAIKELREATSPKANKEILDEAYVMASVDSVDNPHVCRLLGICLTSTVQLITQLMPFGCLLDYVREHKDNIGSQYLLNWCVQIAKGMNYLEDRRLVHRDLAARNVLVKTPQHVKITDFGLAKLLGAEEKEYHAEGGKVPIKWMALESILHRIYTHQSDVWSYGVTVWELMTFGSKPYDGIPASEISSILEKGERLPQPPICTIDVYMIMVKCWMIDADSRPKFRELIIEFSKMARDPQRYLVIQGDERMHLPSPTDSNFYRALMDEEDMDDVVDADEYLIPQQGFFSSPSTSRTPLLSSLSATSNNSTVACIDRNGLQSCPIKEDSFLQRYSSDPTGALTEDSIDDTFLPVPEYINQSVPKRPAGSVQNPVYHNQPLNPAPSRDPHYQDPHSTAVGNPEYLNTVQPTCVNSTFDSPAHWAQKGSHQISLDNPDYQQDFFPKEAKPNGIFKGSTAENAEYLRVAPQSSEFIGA
Sequence of Ba/F3 EGFR-V769_D770insASV (P00533 with tags, fused parts or gaps DUP767-769): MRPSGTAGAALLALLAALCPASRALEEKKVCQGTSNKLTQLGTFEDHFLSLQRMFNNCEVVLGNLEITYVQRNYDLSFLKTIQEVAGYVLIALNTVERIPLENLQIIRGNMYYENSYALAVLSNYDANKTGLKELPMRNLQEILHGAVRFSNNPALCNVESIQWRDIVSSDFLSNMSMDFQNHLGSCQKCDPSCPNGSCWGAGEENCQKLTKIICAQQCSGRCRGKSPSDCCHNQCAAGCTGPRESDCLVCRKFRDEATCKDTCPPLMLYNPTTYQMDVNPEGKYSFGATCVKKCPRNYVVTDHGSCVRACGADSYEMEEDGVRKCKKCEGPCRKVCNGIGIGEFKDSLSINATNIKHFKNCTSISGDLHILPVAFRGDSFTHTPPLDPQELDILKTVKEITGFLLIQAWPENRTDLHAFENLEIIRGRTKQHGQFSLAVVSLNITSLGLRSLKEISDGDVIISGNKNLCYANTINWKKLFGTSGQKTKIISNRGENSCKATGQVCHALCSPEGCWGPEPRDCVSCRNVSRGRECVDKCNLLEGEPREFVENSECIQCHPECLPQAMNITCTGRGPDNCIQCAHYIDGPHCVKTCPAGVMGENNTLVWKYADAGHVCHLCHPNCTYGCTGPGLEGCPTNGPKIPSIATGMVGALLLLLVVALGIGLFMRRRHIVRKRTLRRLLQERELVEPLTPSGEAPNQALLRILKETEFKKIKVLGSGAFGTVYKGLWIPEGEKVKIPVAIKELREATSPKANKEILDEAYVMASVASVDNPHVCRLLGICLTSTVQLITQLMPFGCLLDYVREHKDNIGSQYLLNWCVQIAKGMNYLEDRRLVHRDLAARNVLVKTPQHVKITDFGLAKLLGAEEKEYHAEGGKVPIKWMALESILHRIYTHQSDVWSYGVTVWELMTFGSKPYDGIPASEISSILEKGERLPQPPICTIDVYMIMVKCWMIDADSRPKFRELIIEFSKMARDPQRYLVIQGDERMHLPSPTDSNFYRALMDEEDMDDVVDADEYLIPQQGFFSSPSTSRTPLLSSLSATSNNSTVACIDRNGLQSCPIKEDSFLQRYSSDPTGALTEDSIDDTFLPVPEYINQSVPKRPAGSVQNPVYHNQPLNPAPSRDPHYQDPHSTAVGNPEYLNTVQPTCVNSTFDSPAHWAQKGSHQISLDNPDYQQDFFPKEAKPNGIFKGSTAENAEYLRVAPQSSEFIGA

As to `C=CC(=O)Nc1cc(Nc2ncc(C(=O)OC(C)C)c(N3CC(C)(C)c4nc(C)ccc43)n2)c(OC)cc1N(C)CCN(C)C` [Example 1, isopropyl 2-((5-acrylamido-4-((2-(dimethylamino)ethyl)(methyl)amino)-2-methoxyphenyl)amino)-4-(3,3,5-trimethyl-2,3-dihydro-1H-pyrrolo[3,2-b]pyridin-1-yl)pyrimidine-5-carboxylate], the GI50 is 7 nM in test [1] and 10.4 nM in test [2]. The compound further displayed an IC50 in test [3] of 105 nM.
For `C=CC(=O)Nc1cc(Nc2ncc(C(=O)OC(C)C)c(N3CC(C)(C)c4ncccc43)n2)c(OC)cc1N(C)CCN(C)C` [Example 2, isopropyl 2-((5-acrylamido-4-((2-(dimethylami-no)ethyl)(methyl)amino)-2-methoxy-phenyl)amino)-4-(3,3-dimethyl-2,3-dihydro-1H-pyrrolo[3,2-b]pyridin-1-yl)pyrimidine-5-carboxylate] the same measures were 26.8 nM, 35 nM and 479 nM.
For `C=CC(=O)Nc1cc(Nc2ncc(C(=O)OC(C)C)c(N3CC(C)(C)c4ncccc43)n2)c(OC(F)F)cc1N(C)CCN(C)C` [Example 3, isopropyl 2-((5-acrylamido-2-(difluoromethoxy)-4-((2-(dimethylamino)ethyl)(methyl)ami-no)phenyl)amino)-4-(3,3-dimethyl-2,3-dibydro-1H-pyrrolo[3,2-b]pyridin-1-yl)pyrimidine-5-carboxylate] the same measures were 23.2 nM, 33.1 nM and 371 nM.
Regarding `C=CC(=O)Nc1cc(Nc2ncc(C(=O)OC(C)C)c(N3CC4(CCC4)c4nc(C)ccc43)n2)c(OC)cc1N(C)CCN(C)C` [Example 5, isopropyl 2-((5-acrylamido-4-((2-(dimethylami-no)ethyl)(methyl)amino)-2-methoxy-phenyl)amino)-4-(5′-methylspiro(cyclo-butane-1,3′-pyrrolo[3,2-b]pyridin)-1′(2′H)-yl)pyrimidine-5-carboxylate], the values for the GI50 in test [1] and in test [2] were 15.8 nM and 30.4 nM, respectively. This compound yielded an IC50 in test [3] of 516 nM.
Turning to `C=CC(=O)Nc1cc(Nc2ncc(C(=O)OC(C)C)c(N3CC4(CCC4)c4ncccc43)n2)c(OC(F)F)cc1N(C)CCN(C)C` [Example 6, isopropyl 2-((5-acrylamido-2-(difluoromethoxy)-4-((2-(dimethylamino)ethyl)(methyl)ami-no)phenyl)amino)-4-(spiro(cyclo-butane-1,3′-pyrrolo[3,2-b]pyridin)-1′(2′H)-yl)pyrimidine-5-carboxylate], the GI50 amounted to 12.4 nM in test [1] and 35.1 nM in test [2]. Moreover, in test [3], the IC50 came out at 627 nM.
For `C=CC(=O)Nc1cc(Nc2ncc(C(=O)OC(C)C)c(N3CC4(CCC4)c4ncccc43)n2)c(OC)cc1N(C)CCN(C)C` [Example 7, isopropyl 2-((5-acrylamido-4-((2-(dimethylami-no)ethyl)(methyl)amino)-2-methoxy-phenyl)amino)-4-(spiro(cyclobutane-1,3′-pyrrolo[3,2-b]pyridin)-1′(2′H)-yl)pyrimidine-5-carboxylate] the same measures were 18.8 nM, 29.9 nM and 735 nM.
For `C=CC(=O)Nc1cc(Nc2ncc(C(=O)OC(C)C)c(N3CC(C)(C)c4nc(-c5cnn(C)c5)ccc43)n2)c(OC)cc1N(C)CCN(C)C` [Example 8, isopropyl 2-((5-acrylamido-4-((2-(dimethylami-no)ethyl)(methyl)amino)-2-methoxy-phenyl)amino)-4-(3,3-dimethyl-5-(1-methyl-1H-pyrazol-4-yl)-2,3-dihydro-1H-pyrrolo[3,2-b]pyridin-1-yl)pyrimidine-5-carboxylate] the same measures were 11 nM, 18.7 nM and 102 nM.
The matching figures for `C#Cc1ccc2c(n1)C(C)(C)CN2c1nc(Nc2cc(NC(=O)C=C)c(N(C)CCN(C)C)cc2OC)ncc1C(=O)OC(C)C` [Example 9, isopropyl 2-((5-acrylamido-4-((2-(dimethylamino)ethyl)(methyl)amino)-2-methoxyphenyl)amino)-4-(5-ethynyl-3,3-dimethyl-2,3-dihydro-1H-pyrrolo[3,2-b]pyridin-1-yl)pyrimidine-5-carboxylate]: 17.8 nM, 31.8 nM and 23.3 nM.
For the compound `C=CC(=O)Nc1cc(Nc2ncc(C(=O)OC(C)C)c(N3CC4(CCC4)c4nc(-c5cnn(C)c5)ccc43)n2)c(OC)cc1N(C)CCN(C)C` [Example 10, isopropyl 2-((5-acrylamido-4-((2-(dimethylami-no)ethyl)(methyl)amino)-2-methoxy-phenyl)amino)-4-(5′-(1-methyl-1H-pyrazol-4-yl)spiro(cyclobutane-1,3′-pyrrolo[3,2-b]pyridin)-1′(2′H)-yl)pyrimidine-5-carboxylate], the GI50 in test [1] came to 36.9 nM; in test [2] it was 39.4 nM. For the same compound, 278 nM corresponded to half-maximal inhibition in test [3] (IC50).
For `C=CC(=O)Nc1cc(Nc2ncc(C(=O)OC(C)C)c(N3CC(C)(C)c4nc(F)ccc43)n2)c(OC)cc1N(C)CCN(C)C` [Example 11, isopropyl 2-((5-acrylamido-4-((2-(dimethylami-no)ethyl)(methyl)amino)-2-methoxy-phenyl)amino)-4-(5-fluoro-3,3-dimethyl-2,3-dihydro-1H-pyrrolo[3,2-b]pyridin-1-yl)pyrimidine-5-carboxylate] the same measures were 30.2 nM, 37.3 nM and 828 nM.
For `C=CC(=O)Nc1cc(Nc2ncc(C(=O)OC(C)C)c(N3CC(C)(C)c4nc(C)ccc43)n2)c(OC)cc1N1CC[C@@H](N(C)C)C1` [Example 12, isopropyl (R)-2-((5-acrylamido-4-(3-(dimethyl-amino)pyrrolidin-1-yl)-2-methoxy-phenyl)amino)-4-(3,3,5-trimethyl-2,3-dihydro-1H-pyrrolo[3,2-b]pyridin-1-yl)pyrimidine-5-carboxylate] the same measures were 18.5 nM, 36.9 nM and 599 nM.
The matching figures for `C=CC(=O)Nc1cc(Nc2ncc(C(=O)OC(C)C)c(N3CC(C)(C)c4nc(C)ccc43)n2)c(OC)cc1N(C)CCNC` [Example 15, isopropyl 2-((5-acrylamido-2-methoxy-4-(methyl (2-(methylamino)ethyl)amino)phenyl)amino)-4-(3,3,5-trimethyl-2,3-dihydro-1H-pyrrolo[3,2-b]pyridin-1-yl)pyrimidine-5-carboxylate]: 35 nM, 49.2 nM and 879 nM.
Consider `C=CC(=O)Nc1cc(Nc2ncc(C(=O)OC(C)C)c(N3CC(C)(C)c4nc(C)ccc43)n2)c(OC)cc1N(C)CCN1CCCC1` [Example 66, isopropyl 2-((5-acrylamido-2-methoxy-4-(methyl(2-(pyrrolidin-1-yl)ethyl)amino)phenyl)amino)-4-(3,3,5-trimethyl-2,3-dihydro-1H-pyrrolo[3,2-b]pyridin-1-yl)pyrimidine-5-carboxylate], for which the GI50 is 16.9 nM in test [1] and 27.2 nM in test [2].
The matching figures for `[2H]C([2H])([2H])N(CCN(C([2H])([2H])[2H])C([2H])([2H])[2H])c1cc(OC)c(Nc2ncc(C(=O)OC(C)C)c(N3CC4(CC4)c4nc(C)ccc43)n2)cc1NC(=O)C=C` [Example 69, isopropyl 2-((5-acrylamido-4-((2-(bis(methyl-d3)amino)ethyl)(methyl-d3)amino)-2-methoxyphenyl)amino)-4-(5′-methylspiro(cyclopropane-1,3′-pyrrolo[3,2-b]pyridin)-1′(2′H)-yl)pyrimidine-5-carboxylate]: 26.9 nM and 35.2 nM.
